Data as given in article PMC6058718, “Doxorubicin conjugated with a trastuzumab epitope and an MMP-2 sensitive peptide linker for the treatment of HER2-positive breast cancer” (Drug Delivery, 2018).
Like-named read-outs stand apart in the source and are kept apart here. Where a SMILES comes first, the peptide text is derived from it. Bridges are numbered along the chain shown (N, C = ends). Where no end group is shown, it is not given here. The star is where a group is joined. Glutaryl(5-(14-O-Dox)) = COc1cccc2c1C(=O)c1c(O)c3c(c(O)c1C2=O)C[C@@](O)(C(=O)COC(=O)CCCC(=O)*)C[C@@H]3O[C@H]1C[C@H](N)[C@H](O)[C@H](C)O1

B1: anti-HER2 peptide mimetic AHNP (peptide)
peptide: YCDGFYACYMDV-NH2
modifications: disulfide 2-8

Key:
BT474 xenografts = settings: nude mice with BT474 xenografts, 5 mg DOX equivalent/kg once every seven days for three times
Protocol: Eighteen athymic nude mice (Balb/c nu/nu, females) were used. All animal experiments were carried out in accordance with guidelines evaluated and approved by the ethics committee of Nanjing Medical University. BT474 cells were first collected in a concentration of 1 × 10^7/mL and orthotopically injected into the mammary fat pad area of each mouse with 0.1 mL PBS/mouse.
(§1) When the tumor size reached a volume of about 50 mm^3, the mice were randomly divided into three groups (each group consisted of 6 mice) for the treatment with 5 mg DOX equivalent/kg of either free DOX or MAHNP-DOX once every seven days for three times. Saline was used as negative control. The animals’ weight and tumor dimensions were measured every five days. Tumor volume was calculated using an equation: TV =1/2 × a × b^2, where a is the largest diameter and b is the smallest diameter. Each animal was tagged in the ear and followed individually throughout the experiment. For in vivo imaging study, the mice were intravenously injected through the caudal vein by 5 mg DOX equivalent/kg of free DOX and MAHNP-DOX, images were taken on IVIS LuminaXR imaging system (Perkin Elmer, San Diego, CA, USA) at 4 h post injection. Tumors and organ samples including heart, liver, spleen, kidneys and lungs were carefully removed and stored in liquid nitrogen. To assess the pharmacokinetic profile of the drugs, free DOX and MAHNP-DOX were injected intravenously into the mice, respectively. Blood samples were collected at 0.083, 0.25, 0.5, 1, 2, 4, 8, 12 and 24 h post injection.

[1] = Biodistribution in BT474 tumor-bearing mice by fluorescent imaging and HPLC; format: in vivo; settings: 4 h after intravenous injection, 5 mg DOX equivalent/kg
From the text: Saline was used as negative control.
Daunorubicin (DAU) was used as internal standard.

SKBR3 cells [2] = assay: MTT cytotoxicity assay, SKBR3 cells; format: cell-based, human
Protocol: (§2) The cytotoxicity of MAHNP-DOX was determined using MTT test. Free DOX was used as positive control, and the cells treated with conditioned medium only were considered as negative control. BT474 and SKBR3 cells in exponential growth were seeded in a 96-well plate and incubated for 24 h at 37 °C. Then, a series of dilutions of free DOX and MAHNP-DOX at equivalent concentration were prepared with the conditioned medium and incubated for another 48 h. After an addition of MTT solution (5 mg/ml in PBS) to each well, the cells were incubated for 4 h and lysed in DMSO. Absorbance was determined at 490 nm using an EL ×800 absorbance microplate reader (Biotek, Winooski, VT, USA). The IC50 values were calculated from the linear regression of the dose–log response curves using GraphPad Prism 6 software (GraphPad Software, San Diego, CA, USA).
(§3) To further confirm the dependence of cytotoxicity on MMP-2 activity, NIH-3T3 cells were pre-incubated with 10 μM MMP-2 inhibitor I in serum-free medium for 24 h, and the medium was also collected termed as treated conditioned medium. Following the procedure above, the cytotoxicity of MAHNP-DOX was also determined using this medium.

BT474 cells [3] = assay: MTT cytotoxicity assay, BT474 cells; format: cell-based, human
Protocol: as §2, §3

[4] = Pharmacokinetic profile in plasma of mice; settings: intravenous injection, blood 0.083-24 h post injection, LC-MS/MS, n = 3
Protocol: as §1

MMP-2 = biological target: T1, MMP-2 (Mus musculus, UniProt P33434); assay: Enzymatic cleavage of MAHNP-DOX by MMP-2 in NIH-3T3 conditioned medium; format: in vitro ADME; settings: 5 μM MAHNP-DOX in concentrated conditioned medium from NIH-3T3 cells containing active MMP-2, 37 °C, 2 h of incubation, HPLC / LC-MS/MS
T1 construct: 4 mL of the medium containing active MMP-2 (i.e. conditioned medium) was collected and concentrated; endogenous in cells; host or cells: NIH-3T3 fibroblasts; serum-free conditioned medium concentrated with a 10 K centrifugal filter
T1 sequence (P33434 110-662): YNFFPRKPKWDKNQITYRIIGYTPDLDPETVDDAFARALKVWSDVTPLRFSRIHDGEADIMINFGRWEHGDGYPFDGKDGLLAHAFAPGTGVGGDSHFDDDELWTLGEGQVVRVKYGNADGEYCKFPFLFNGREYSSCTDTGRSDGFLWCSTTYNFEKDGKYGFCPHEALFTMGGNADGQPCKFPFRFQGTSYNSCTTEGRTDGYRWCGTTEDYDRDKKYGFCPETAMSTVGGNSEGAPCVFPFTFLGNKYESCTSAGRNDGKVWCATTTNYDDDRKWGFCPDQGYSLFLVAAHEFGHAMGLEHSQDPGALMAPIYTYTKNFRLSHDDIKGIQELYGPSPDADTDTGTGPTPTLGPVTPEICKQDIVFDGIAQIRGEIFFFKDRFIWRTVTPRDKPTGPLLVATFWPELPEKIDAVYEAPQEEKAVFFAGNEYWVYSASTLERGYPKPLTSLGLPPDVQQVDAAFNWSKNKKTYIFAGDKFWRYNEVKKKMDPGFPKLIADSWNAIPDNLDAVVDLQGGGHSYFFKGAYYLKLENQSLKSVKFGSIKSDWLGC
Protocol: NIH-3T3 cells that can secrete active MMP-2 (Figure S1) were cultured in serum-free medium for 24 h. Then, 4 mL of the medium containing active MMP-2 (i.e. conditioned medium) was collected and concentrated to 500 μL using Amicon Ultra-4 10 K centrifugal filter devices (Millipore, Bedford, MA, USA) (Aye et al., [2004]). Dilution of MAHNP-DOX at a concentration of 5 μM was prepared with the concentrated conditioned medium and incubated at 37 °C. Aliquots were removed at 1 h and 2 h and then analyzed by LC–MS/MS (van Duijnhoven et al., [2011]). The analysis was performed on XBridge™ C18 column (5 μm, 4.6 × 250 mm; Waters, Milford, MA, USA) at room temperature. The flow rate of HPLC was 0.3 mL/min with a mobile phase consisted of solvent A (water with 0.1% FA) and solvent B (ACN). The gradient was as follows: B 0 min (10%) → 15 min (90%) → 20 min (90%) → 25 min (10%).
The sensitivity of MAHNP-DOX to MMP-2 was studied using HPLC. To date, there has been substantial evidence indicating stronger signals for MMP-2 in stromal cells compared to cancer cells, while stromal fibroblasts interact with cancer cells by secreting and activating MMP-2 (Saad et al., [2002]; Hassona et al., [2014]). […] Thus, the peaks for MAHNP-DOX and one product after cleavage of GLPG-DOX were monitored. […]

SKBR3 cells [5] = assay: TUNEL assay, SKBR3 cells; format: cell-based, human; settings: 24 h treatment, n = 3
Protocol: (§4) Transferase-mediated nick-end labeling assay was carried out using the DeadEnd Fluorometric TUNEL system kit (Promega, Madison, WI, USA). […] Images were acquired at room temperature with an inverted fluorescence microscope (Leica, DMI3000B, Wetzlar, Germany).

BT474 cells [6] = assay: TUNEL assay, BT474 cells; format: cell-based, human; settings: 24 h treatment, n = 3
Protocol: as §4

[7] = biological target: human epidermal growth factor receptor family member HER2 (human (endogenous in BT474 and SKBR3)) (UniProt P04626)
[8] = 48 h, in conditioned medium, n = 3, read-out: IC50
[9] = conditioned medium from NIH-3T3 cells pretreated with 10 μM MMP-2 inhibitor I, n = 3, read-out: IC50 with MMP-2 inhibitor pretreatment

Row | Molecule | toxicity / body weight change (BT474 xenografts) | drug amount in the tumors compared with free DOX ([1]; fluorescent images confirmed by HPLC, p < .01) | drug accumulation in heart, liver, spleen, lung and kidney compared with free DOX ([1]; p < .05) | IC50 (SKBR3 cells [2]; [8]) [nM] | IC50 (SKBR3 cells [2]; [9]) [nM] | IC50 (BT474 cells [3]; [8]) [nM] | IC50 (BT474 cells [3]; [9]) [nM] | half-life t1/2 in plasma [4] [h] | efficiency of cleavage (MMP-2) [%] | tumor growth inhibition (BT474 xenografts; day 25 after treatment) [%] | percentage of apoptotic cells (SKBR3 cells [5]) [%] | percentage of apoptotic cells (BT474 cells [6]) [%] | increase of the cell population in the G1 phase, BT474 cells, 48 h exposure to AHNP (10 μM) alone, flow cytometry [7] [%] | increase of the cell population in the G1 phase, SKBR3 cells, 48 h exposure to AHNP (10 μM) alone, flow cytometry [7] [%]
1 | COc1cccc2c1C(=O)c1c(O)c3c(c(O)c1C2=O)C[C@@](O)(C(=O)COC(=O)CCCC(=O)NCC(=O)N1CCC[C@H]1C(=O)N[C@@H](CC(C)C)C(=O)NCC(=O)N[C@@H](CC(C)C)C(=O)N[C@@H](C)C(=O)NCC(=O)N[C@@H](CC(=O)O)C(=O)N[C@@H](CC(=O)O)C(=O)N[C@@H](Cc1ccc(O)cc1)C(=O)N[C@H]1CSSC[C@@H](C(=O)N[C@@H](Cc2ccc(O)cc2)C(=O)N[C@@H](CCSC)C(=O)N[C@@H](CC(=O)O)C(=O)N[C@H](C(N)=O)C(C)C)NC(=O)[C@H](C)NC(=O)[C@H](Cc2ccc(O)cc2)NC(=O)[C@H](Cc2ccccc2)NC(=O)CNC(=O)[C@H](CC(=O)O)NC1=O)C[C@@H]3O[C@H]1C[C@H](N)[C@H](O)[C@H](C)O1 [MAHNP-DOX] ({Glutaryl(5-(14-O-Dox))}-GPLGLAGDDYCDGFYACYMDV-NH2; disulfide 11-17) | less weight loss | significantly higher | lower | 110 ± 12.7 | 147 ± 16.3 | 747 ± 81.5 | 1350 ± 154 | 17.6 ± 6.4 | 80.8 |  |  |  |  | 
2 | COc1cccc2c1C(=O)c1c(O)c3c(c(O)c1C2=O)C[C@@](O)(C(=O)CO)C[C@@H]3O[C@H]1C[C@H](N)[C@H](O)[C@H](C)O1.Cl [free DOX, Doxorubicin hydrochloride] | Toxicity was observed |  |  | 173 ± 19.2 |  | 2080 ± 368 |  | 7.7 ± 1.6 |  | 53.4 ± 6.6 | 44.8 ± 2.8 | 34.2 ± 2.1 |  | 
3 | B1 |  |  |  |  |  |  |  |  |  |  |  |  | 6.58 | 9.95
